We go through 47 compounds from PubChem BioAssay (NCI).

SMILES strings stand for the structures. “And” between values parts separate entries of the source, which are not always exact repeats. Identical values can stand only once.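 Step 1: Grow cells in 96-well plates. Step 2: Expose to compound for 48 hours at 5 concentrations. Step 3: Interpolate endpoints linearly; if unreached, use highest concentration. At the GI50, growth is halved. TGI marks complete inhibition of growth.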

This assay relates to MDA-MB-468 breast. Put plainly: NCI tumour cell line growth inhibition, 48 h.
On to `COc1cc(-c2nc3ccccc3s2)ccc1NC(=O)COc1ccc(Cl)cc1`, for which the GI50 was 2.08 µM and the TGI worked out at 56.6 µM.

Consider `[O-][n+]1ccccc1S`, for which the GI50 is 4.15 µM and the TGI was 45.2 µM.

Regarding `COc1cc2nc(SCC(=O)Nc3cc(OC)c(OC)c(OC)c3)n(Cc3ccccc3)c(=O)c2cc1OC`, the GI50 was 5.72 µM and the TGI was found to be 20.2 µM.

As to `CC1=CC(=C(c2ccc(N)cc2)c2ccc(N)cc2)C=CC1=N`, the GI50 was 0.373 µM and 0.411 µM; the TGI was 4.9 µM and 4.3 µM.

As for `CS(=O)(=O)Nc1ccc(-c2cc(-c3ccccc3)cc(C(N)=O)c2N)cc1`, the GI50 was 14.5 µM and the TGI was above 25 µM.

As for `Cc1ccccc1-n1ncc(C(=O)c2ccccc2)c1N`, the GI50 was above 25 µM and the TGI is above 25 µM.

On to `CC(=O)c1cc(C(=O)c2ccc3c(c2)Sc2ccccc2N3)c2c(C)cc(C)cn12`, for which the GI50 is 0.496 µM and the TGI is above 100 µM.

Regarding `Nc1nc2c(s1)CCc1c-2c(Br)n(Cc2ccccc2)c1Br`, the GI50 was 2.84 µM and the TGI worked out at 17.2 µM.

Take `O=C1C(=O)c2c(nc3ccc(Br)cn23)-c2ccccc21`: the GI50 is 1.53 µM and the TGI is 3.22 µM.

Take `CCN1C(=O)N(CC)C2Nn3c(s/c(=C\c4ccccc4Br)c3=O)=NC21` (stereo not drawn): the GI50 is 1.1 µM and the TGI was found to be 6.87 µM.

As for `COc1ccc(C(=O)COC(=O)[C@H](C[Se][Se]C[C@H](NC(=O)c2ccc(Br)cc2F)C(=O)OCC(=O)c2ccc(OC)cc2)NC(=O)c2ccc(Br)cc2F)cc1`, the GI50 was 1.72 µM and the TGI came out at 3.85 µM.

In the case of `COC1CCN(C(=O)c2cc(Cc3n[nH]c(=O)c4ccccc34)ccc2F)CC1`, the GI50 was 30 µM and the TGI is above 100 µM.

Turning to `CCCCCCCCCCCCCC1=NCCN1CCO`, the GI50 was 2.12 µM and the TGI stood at 5.58 µM.

Take `O=[N+]([O-])c1ccccc1N/N=C\c1c[nH]c2ccccc12`: the GI50 was 1.13 µM and the TGI was 5.85 µM.

Take `COc1ccc(C(=O)c2cc(OC)c(OC)c(OC)c2)cc1/C=C/C(=O)c1ccc(OC)c(OC)c1`: the GI50 was 1.25 µM and the TGI turned out to be 77.7 µM.

`Clc1cccc(Cl)c1C1CSc2ccccc2N=C1c1ccccc1` (stereo not drawn): the GI50 is 9.59 µM and the TGI was found to be 29.2 µM.

On to `C/C(=C\CCc1ccoc1)CC/C=C(\C)CCCN1CCOCC1`, for which the GI50 was 2.58 µM and the TGI amounted to 9.59 µM.

As for `O=C1Nc2c(C(F)(F)F)cccc2[C@@]1(c1ccc(O)cc1)c1ccc(OC(F)(F)F)cc1`, the GI50 is below 0.01 µM and the TGI was below 0.01 µM.

On to `CCCCCCCCN(CCCCCCCC)CCCCCCNc1cc(OC)cc2cccnc12`, for which the GI50 was 3.71 µM and the TGI was found to be 13.5 µM.

As to `CN(C)c1ccc(N=C2C=CC(=[N+](C)C)C=C2)cc1`, the GI50 was 3.04 µM and the TGI came to 12.2 µM.

As to `O=C(c1ccccc1)c1ccc(Oc2ccc([N+](=O)[O-])cc2[N+](=O)[O-])cc1`, the GI50 was 1.73 µM and the TGI amounted to 3.38 µM.

Regarding `CCCNNC(=O)c1ccc(-c2ccc(NC(=O)CCCCCCC(=O)N[C@H](C(=O)N3C[C@H](O)C[C@H]3C(=O)N[C@@H](C)c3ccc(-c4scnc4C)cc3)C(C)(C)C)cc2)cc1`, the GI50 is 0.592 µM.

As to `COC(=O)[C@]12CC[C@@H](C)[C@H](C)[C@@H]1C1=CC[C@@H]3[C@@]4(C)C(C=O)=C[C@@](C)(COC(C)=O)C4=CC[C@@]3(C)[C@]1(C)CC2`, the GI50 was 4.21 µM and the TGI is 17.7 µM.

Regarding `Cc1ccc(-c2cc3c(SCC(=O)Nc4cc(C(F)(F)F)ccc4Cl)nccn3n2)cc1`, the GI50 is above 100 µM and the TGI is above 100 µM.

In the case of `COc1ccc(C(SCC(N)C(=O)O)(c2ccccc2)c2ccccc2)cc1` (stereo not drawn), the GI50 was 0.0627 µM and the TGI is above 78.1 µM.

Take `Nc1ncc(-c2ccc3ncnc(N4CCc5cc(F)c(Cl)cc54)c3c2)cn1`: the GI50 was 0.804 µM and the TGI came to 3.04 µM.

For `CC1(C)CCC2=C(O1)c1ccccc1C(=O)C2=O`, the GI50 is 1.68 µM and the TGI worked out at 3.36 µM.

As for `NC1CCC(Nc2nc(NCc3ccc(-c4cccs4)nc3)c3ncn(C4CCCC4)c3n2)CC1` (stereo not drawn), the GI50 was below 0.0134 µM and the TGI came out at 0.035 µM.

As for `Cc1ccc(C(SCC(N)C(=O)O)(c2ccc(C)cc2)c2ccc(C)cc2)cc1` (stereo not drawn), the GI50 is 1.46 µM and the TGI came out at 16.6 µM.

In the case of `Clc1ccc2c(c1)N(c1ncnc3ccc(-c4cnc5[nH]ccc5c4)cc13)CC2`, the GI50 is 0.38 µM and the TGI was 13.7 µM.

As for `NC(=O)c1ccc(NN=O)nc1`, the GI50 was above 100 µM and the TGI was above 100 µM.

In the case of `Clc1ccc2c(c1)N(CCCN1CCCC1)c1ccccc1S2`, the GI50 is 2.75 µM and the TGI came to 8.05 µM.

Consider `O=C(/C(=C\c1ccc([N+](=O)[O-])cc1)S(=O)Cc1ccc(F)cc1)c1ccc(F)cc1` (stereo not drawn), for which the GI50 is 2.05 µM and the TGI amounted to 4.36 µM.

Take `CC(C)(C)C(=O)OCOP(=O)(OCOC(=O)C(C)(C)C)C1CC(O)N(O)C1=O` (stereo not drawn): the GI50 was 5.84 µM and the TGI was above 100 µM.

For `C[C@H](Nc1ncnc2nc[nH]c12)c1cc2ccc(F)cc2nc1-c1ccccn1`, the GI50 is 31.9 µM and the TGI was above 100 µM.

Take `COc1ccc2c(c1)[nH]c(=O)c1c3cc(OC)ccc3cn21`: the GI50 is 0.0393 µM and the TGI was 1.16 µM.

Consider `Cc1cc(O)ccc1C1=NN(c2ccc(S(C)(=O)=O)cc2)C(=O)CC1`, for which the GI50 was 11 µM and the TGI came to 44.3 µM.

On to `Cc1ccc(-c2cc(C(F)(F)F)nn2-c2ccc(S(N)(=O)=O)cc2)cc1`, for which the GI50 is 24.2 µM and the TGI is 90.7 µM.

Take `CN(Cc1cc(Br)cc(Br)c1O)Cc1cc(Br)cc(Br)c1O`: the GI50 is 2.09 µM and the TGI was 13 µM.

Consider `C=CC(=O)NCc1cccc(Nc2ncc(Br)c(NCCCNC(=O)C3CCC3)n2)c1`, for which the GI50 is 1.64 µM and 1.02 µM; the TGI is 4.33 µM and 5 µM.

Turning to `Nc1nc(OCc2cc(Br)cs2)c2[nH]cnc2n1`, the GI50 was 14 µM and the TGI was 58.6 µM.

Consider `c1cc2[nH]ncc2cc1-c1nc2ccc3[nH]ncc3c2c2c1CCCC2`, for which the GI50 is 0.403 µM and the TGI stood at 3.16 µM.

As to `O=C1c2nsnc2C(=O)c2c(F)c(F)c(F)c(F)c21`, the GI50 is 0.672 µM and the TGI amounted to 2.32 µM.

Take `Cl.Fc1c[c-]c(-c2ccccn2)c(F)c1.[Pt].c1ccc(P(c2ccccc2)C([PH+](c2ccccc2)c2ccccc2)[PH+](c2ccccc2)c2ccccc2)cc1`: the GI50 was 2.69 µM and the TGI is 19.5 µM.

Turning to `O=C1NC(=O)C(=C/C=C/c2ccccc2)C(=O)N1`, the GI50 is 2.99 µM and the TGI was 10.1 µM.

On to `Cn1cc(C2=C(c3cn(C)c4c([N+](=O)[O-])cccc34)C(=O)NC2=O)c2ccccc21`, for which the GI50 was above 25 µM and the TGI is above 25 µM.

For `CCOC(=O)n1cc(C2=C(c3cn(C)c4ccccc34)COC2=O)c2ccccc21`, the GI50 is 0.053 µM and the TGI was above 100 µM.
